In patent US20130040933A1, “AZAINDOLES AS JANUS KINASE INHIBITORS” (priority 2010, published 2013):
pIC50: −log10 of the molar value. Where two headings read alike, the source gives them in different places.

Biological target: T1, rhJAK3 (Homo sapiens, UniProt P52333)
T1 construct: recombinant purified GST-tagged catalytic domain for each enzyme; purchased Invitrogen PV3855
Assay: JAK Biochemical HTRF Assay (JAK3)
Settings: recombinant purified GST-tagged catalytic domain, HTRF format, [ATP] 1.7 μM

T1 sequence (P52333 822-1111 limits assumed): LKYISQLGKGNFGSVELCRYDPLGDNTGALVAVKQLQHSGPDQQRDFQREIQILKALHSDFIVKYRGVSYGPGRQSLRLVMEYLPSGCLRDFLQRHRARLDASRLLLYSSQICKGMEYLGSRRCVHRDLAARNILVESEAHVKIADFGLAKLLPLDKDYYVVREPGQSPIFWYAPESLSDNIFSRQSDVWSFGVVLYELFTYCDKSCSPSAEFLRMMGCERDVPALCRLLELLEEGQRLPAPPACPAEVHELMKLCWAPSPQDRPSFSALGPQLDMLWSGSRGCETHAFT

| Compound | pIC50 (read-out: JAK3 IC50) | pIC50 (read-out: rhJAK3 IC50) |
| --- | --- | --- |
| COC(=O)c1cnc2[nH]cc(-c3cncc(N[C@@H](C(=O)NCC(F)(F)F)C(C)C)n3)c2c1 [Example 16-3, Methyl 3-[6-({(2R)-3-methyl-1-oxo-1-[(2,2,2-trifluoroethyl)amino]butan-2-yl}-amino)pyrazin-2-yl]-1H-pyrrolo[2,3-b]-pyridine-5-carboxylate] | 8.00 to 9.00 | – |
| CC(C)(Nc1cncc(-c2c[nH]c3ncc(F)cc23)n1)C(=O)NCC(F)(F)F [Example 16-5, N^2-[6-(5-fluoro-1H-pyrrolo[2,3-b]pyridin-3-yl)pyrazin-2-yl]-2-methyl-N-(2,2,2-trifluoroethyl)alaninamide] | ≥ 9.00 | – |
| (2R)-1-[6-(5-chloro-1H-pyrrolo[2,3-b]- pyridin-3-yl)pyrazin-2-yl]-N-(2,2,2- trifluoroethyl)piperazine-2-carboxamide [Example 4-1] | – | 7.00 to 8.00 |
